Measured values: ChEMBL document CHEMBL1139448, “Synthesis and antibacterial activity of 7-(substituted)aminomethyl quinolones” (2004)
≈ marks a conversion by molar mass, not a printed value. Each block holds one compound with its values, some of them ahead of it.

Columns and labels:
Format in all cases: functional
Klebsiella pneumoniae = experiment: In vitro antibacterial activity against gram-negative Klebsiella pneumoniae
Streptococcus pneumoniae = experiment: In vitro antibacterial activity against gram-positive Streptococcus pneumoniae
Shigella boydii = experiment: In vitro antibacterial activity against gram-negative Shigella boydii
Citrobacter freundii = experiment: In vitro antibacterial activity against gram-negative Citrobacter freundii
Staphylococcus aureus = experiment: In vitro antibacterial activity against gram-positive Staphylococcus aureus
[1] = system: Staphylococcus epidermidis; experiment: In vitro antibacterial activity against gram-positive Staphylococcus epidermidis

Structure (SMILES): O=C(O)c1cn(C2CC2)c2c(F)c(N3CCNCC3)c(F)cc2c1=O
MIC (Klebsiella pneumoniae): 0.049 µg/mL (≈ 0.14 µM)
MIC (Streptococcus pneumoniae): 0.049 µg/mL (≈ 0.14 µM)
MIC (Shigella boydii): 0.049 µg/mL (≈ 0.14 µM)
MIC (Citrobacter freundii): 0.049 µg/mL (≈ 0.14 µM)
MIC (Staphylococcus aureus): 0.195 µg/mL (≈ 0.558 µM)
MIC [1]: 0.39 µg/mL (≈ 1.12 µM)

MIC (Citrobacter freundii): 1.56 µg/mL
Structure (SMILES): Cl.O=C(O)c1cn(C2CC2)c2c(F)c(CNc3cccc(Cl)c3)c(F)cc2c1=O

MIC (Citrobacter freundii): 1.56 µg/mL
Structure (SMILES): CN1CCN(Cc2c(F)cc3c(=O)c(C(=O)O)cn(C4CC4)c3c2F)CC1.Cl

MIC (Klebsiella pneumoniae): 0.098 µg/mL
MIC (Streptococcus pneumoniae): 0.78 µg/mL
MIC (Shigella boydii): 0.098 µg/mL
MIC (Citrobacter freundii): 0.098 µg/mL
MIC (Staphylococcus aureus): 12.5 µg/mL
MIC [1]: 12.5 µg/mL
Structure (SMILES): Cl.NCc1c(F)cc2c(=O)c(C(=O)O)cn(C3CC3)c2c1F

MIC (Citrobacter freundii): ≤ 0.049 µg/mL
Structure (SMILES): Cl.O=C(O)c1cn(C2CC2)c2c(F)c(CNC3CC3)c(F)cc2c1=O

MIC (Citrobacter freundii): 0.195 µg/mL
Structure (SMILES): CCCNCc1c(F)cc2c(=O)c(C(=O)O)cn(C3CC3)c2c1F.Cl

MIC (Citrobacter freundii): 0.195 µg/mL
Structure (SMILES): Cl.O=C(O)c1cn(C2CC2)c2c(F)c(CN3CCNCC3)c(F)cc2c1=O

MIC (Citrobacter freundii): 0.39 µg/mL
Structure (SMILES): Cl.O=C(O)c1cn(C2CC2)c2c(F)c(CNc3ccc(F)cc3)c(F)cc2c1=O

MIC (Citrobacter freundii): 0.78 µg/mL
Structure (SMILES): Cl.O=C(O)c1cn(C2CC2)c2c(F)c(CNc3ccc(F)c(Cl)c3)c(F)cc2c1=O

MIC (Citrobacter freundii): 0.78 µg/mL
Structure (SMILES): Cc1ccc(NCc2c(F)cc3c(=O)c(C(=O)O)cn(C4CC4)c3c2F)cc1.Cl

MIC (Klebsiella pneumoniae): 0.098 µg/mL
MIC (Streptococcus pneumoniae): 1.56 µg/mL
MIC (Shigella boydii): 0.195 µg/mL
MIC (Citrobacter freundii): 0.098 µg/mL
MIC (Staphylococcus aureus): > 6.25 µg/mL
MIC [1]: > 6.25 µg/mL
Structure (SMILES): CC(C)NCc1c(F)cc2c(=O)c(C(=O)O)cn(C3CC3)c2c1F.Cl

MIC (Citrobacter freundii): ≤ 0.049 µg/mL
Structure (SMILES): CCNCc1c(F)cc2c(=O)c(C(=O)O)cn(C3CC3)c2c1F.Cl

MIC (Citrobacter freundii): 1.56 µg/mL
Structure (SMILES): Cl.O=C(O)c1cn(C2CC2)c2c(F)c(CNc3ccc(Cl)cc3)c(F)cc2c1=O

MIC (Citrobacter freundii): 0.78 µg/mL
Structure (SMILES): Cc1cc(C)nc(NCc2c(F)cc3c(=O)c(C(=O)O)cn(C4CC4)c3c2F)c1.Cl

MIC (Citrobacter freundii): 1.56 µg/mL
Structure (SMILES): Cc1ccc(NCc2c(F)cc3c(=O)c(C(=O)O)cn(C4CC4)c3c2F)cc1C.Cl

MIC (Citrobacter freundii): 0.39 µg/mL
Structure (SMILES): Cl.O=C(O)c1cn(C2CC2)c2c(F)c(CNc3ccccc3)c(F)cc2c1=O

MIC (Citrobacter freundii): 0.098 µg/mL
Structure (SMILES): CCCCNCc1c(F)cc2c(=O)c(C(=O)O)cn(C3CC3)c2c1F.Cl

MIC (Klebsiella pneumoniae): 0.098 µg/mL (≈ 0.279 µM)
MIC (Streptococcus pneumoniae): 0.195 µg/mL (≈ 0.555 µM)
MIC (Shigella boydii): 0.098 µg/mL (≈ 0.279 µM)
MIC (Citrobacter freundii): 0.098 µg/mL (≈ 0.279 µM)
MIC (Staphylococcus aureus): 0.78 µg/mL (≈ 2.22 µM)
MIC [1]: 0.78 µg/mL (≈ 2.22 µM)
Structure (SMILES): CCn1cc(C(=O)O)c(=O)c2cc(F)c(N3CCNC(C)C3)c(F)c21 (centres undefined) [LOMEFLOXACIN]

Structure (SMILES): CN[C@H](CC(C)C)C(=O)N[C@H]1C(=O)N[C@@H](CC(N)=O)C(=O)N[C@H]2C(=O)N[C@H]3C(=O)N[C@H](C(=O)N[C@H](C(=O)O)c4cc(O)cc(O)c4-c4cc3ccc4O)[C@H](O)c3ccc(c(Cl)c3)Oc3cc2cc(c3O[C@@H]2O[C@H](CO)[C@@H](O)[C@H](O)[C@H]2O[C@H]2C[C@](C)(N)[C@H](O)[C@H](C)O2)Oc2ccc(cc2Cl)[C@H]1O [VANCOMYCIN]
MIC (Citrobacter freundii): > 6.25 µg/mL
